These results are taken from ChEMBL document CHEMBL5338754, “Identification of Binding Sites in the Nucleotide-Binding Domain of P-Glycoprotein for a Potent and Nontoxic Modulator, the Amine-Containing Monomeric Flavonoid FM04” (J Med Chem, 2023).

In data set [1] the target is T1, ATP-dependent translocase ABCB1 (Homo sapiens, UniProt P08183, C1227A). The data set can be described thus: Negative allosteric modulator activity at human P-gp C1227A mutant expressed in HEK293FT cells assessed as reversal of P-gp mediated PTX resistance by measuring sensitivity fold change incubated for 5 days by MTS assay. The class given is cell-based. As to conditions: 120 h, time 5 day. (In general: Formazan colour is commonly taken as a measure of viable cells.)
T1 sequence (P08183 whole entry C1227A): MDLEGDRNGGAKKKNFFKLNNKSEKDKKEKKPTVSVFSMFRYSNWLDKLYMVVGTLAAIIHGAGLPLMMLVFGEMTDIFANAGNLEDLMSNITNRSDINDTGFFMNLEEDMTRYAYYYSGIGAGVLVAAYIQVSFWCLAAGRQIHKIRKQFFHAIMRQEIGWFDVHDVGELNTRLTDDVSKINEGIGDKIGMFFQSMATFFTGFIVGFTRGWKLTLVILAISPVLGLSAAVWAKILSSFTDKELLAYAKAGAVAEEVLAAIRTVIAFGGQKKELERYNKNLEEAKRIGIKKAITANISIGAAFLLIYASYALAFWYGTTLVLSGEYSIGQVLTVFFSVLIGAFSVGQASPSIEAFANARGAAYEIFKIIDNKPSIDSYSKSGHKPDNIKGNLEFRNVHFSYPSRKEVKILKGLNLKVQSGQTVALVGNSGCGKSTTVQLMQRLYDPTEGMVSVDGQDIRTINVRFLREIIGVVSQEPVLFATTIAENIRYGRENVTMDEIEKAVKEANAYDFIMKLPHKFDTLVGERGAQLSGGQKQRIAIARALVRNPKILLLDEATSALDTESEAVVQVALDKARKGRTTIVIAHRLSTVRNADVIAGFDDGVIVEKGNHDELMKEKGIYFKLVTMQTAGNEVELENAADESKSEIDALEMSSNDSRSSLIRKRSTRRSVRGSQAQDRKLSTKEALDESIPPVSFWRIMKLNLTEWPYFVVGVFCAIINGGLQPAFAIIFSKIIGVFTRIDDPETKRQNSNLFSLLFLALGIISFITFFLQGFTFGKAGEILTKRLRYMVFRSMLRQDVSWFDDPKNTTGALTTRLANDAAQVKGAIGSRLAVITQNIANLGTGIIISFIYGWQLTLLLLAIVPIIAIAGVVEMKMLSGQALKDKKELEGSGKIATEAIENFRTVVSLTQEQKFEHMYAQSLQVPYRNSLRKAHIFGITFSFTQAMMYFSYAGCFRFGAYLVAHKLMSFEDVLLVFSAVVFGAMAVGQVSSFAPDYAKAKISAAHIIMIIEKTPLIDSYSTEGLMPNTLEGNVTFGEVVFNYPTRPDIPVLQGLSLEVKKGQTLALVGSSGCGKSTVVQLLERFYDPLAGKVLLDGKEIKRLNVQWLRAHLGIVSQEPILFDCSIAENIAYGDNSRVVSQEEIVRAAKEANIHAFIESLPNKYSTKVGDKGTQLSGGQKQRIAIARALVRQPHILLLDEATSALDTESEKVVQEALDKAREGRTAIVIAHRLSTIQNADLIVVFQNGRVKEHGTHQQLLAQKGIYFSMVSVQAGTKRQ

In data set [2] the target is T2, ATP-dependent translocase ABCB1 (Homo sapiens, UniProt P08183, Q1193C). Description: Negative allosteric modulator activity at human P-gp Q1193C mutant expressed in HEK293FT cells assessed as reversal of P-gp mediated PTX resistance by measuring sensitivity fold change incubated for 5 days by MTS assay. The format is cell-based. As to conditions: 120 h, time 5 day.
T2 sequence (P08183 whole entry Q1193C): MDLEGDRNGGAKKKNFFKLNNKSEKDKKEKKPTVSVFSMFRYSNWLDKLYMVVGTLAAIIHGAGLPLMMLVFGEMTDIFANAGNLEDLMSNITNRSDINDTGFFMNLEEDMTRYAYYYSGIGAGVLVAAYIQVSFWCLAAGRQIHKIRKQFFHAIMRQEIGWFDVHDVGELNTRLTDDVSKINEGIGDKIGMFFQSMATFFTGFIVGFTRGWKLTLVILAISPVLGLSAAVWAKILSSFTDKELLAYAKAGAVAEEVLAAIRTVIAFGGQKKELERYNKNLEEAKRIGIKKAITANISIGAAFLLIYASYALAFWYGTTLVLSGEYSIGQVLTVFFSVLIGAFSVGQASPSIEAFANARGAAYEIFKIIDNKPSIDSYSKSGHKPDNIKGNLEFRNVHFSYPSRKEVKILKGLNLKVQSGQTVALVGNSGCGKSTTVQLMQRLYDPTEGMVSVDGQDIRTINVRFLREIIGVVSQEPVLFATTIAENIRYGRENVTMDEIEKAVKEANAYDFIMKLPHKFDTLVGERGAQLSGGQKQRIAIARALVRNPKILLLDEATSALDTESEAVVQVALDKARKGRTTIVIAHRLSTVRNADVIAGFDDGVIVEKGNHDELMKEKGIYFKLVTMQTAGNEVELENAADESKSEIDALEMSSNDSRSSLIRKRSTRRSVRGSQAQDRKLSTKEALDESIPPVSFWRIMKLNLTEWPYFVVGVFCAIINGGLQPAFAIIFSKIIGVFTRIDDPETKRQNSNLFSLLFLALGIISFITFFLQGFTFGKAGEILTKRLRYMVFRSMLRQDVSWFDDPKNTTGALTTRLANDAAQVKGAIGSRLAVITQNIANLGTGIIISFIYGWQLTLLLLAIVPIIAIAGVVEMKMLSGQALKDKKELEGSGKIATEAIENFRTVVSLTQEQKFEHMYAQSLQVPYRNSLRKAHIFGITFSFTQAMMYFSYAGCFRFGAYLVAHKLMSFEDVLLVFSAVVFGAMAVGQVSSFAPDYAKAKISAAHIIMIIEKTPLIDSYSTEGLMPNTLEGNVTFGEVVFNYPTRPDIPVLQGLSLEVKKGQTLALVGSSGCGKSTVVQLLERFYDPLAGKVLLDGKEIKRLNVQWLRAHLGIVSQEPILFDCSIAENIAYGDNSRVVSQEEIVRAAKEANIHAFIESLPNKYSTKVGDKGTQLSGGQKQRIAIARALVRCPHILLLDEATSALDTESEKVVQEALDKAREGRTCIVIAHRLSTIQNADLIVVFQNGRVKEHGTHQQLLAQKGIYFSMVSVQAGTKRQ

Data set [3] deals with ATP-dependent translocase ABCB1 (Homo sapiens, UniProt P08183, T1226W). Description: Negative allosteric modulator activity at human P-gp T1226W mutant expressed in HEK293FT cells assessed as reversal of P-gp mediated PTX resistance by measuring sensitivity fold change incubated for 5 days by MTS assay. The class given is cell-based. As to conditions: 120 h, time 5 day.
For data set [4], the target named is ATP-dependent translocase ABCB1 (Homo sapiens, UniProt P08183). The data set can be described thus: Negative allosteric modulator activity at human wildtype P-gp expressed in HEK293FT cells assessed as increase in intracellular doxorubicin accumulation using doxorubicin as substrate at 1 uM incubated for 150 mins by microplate reader assay (reference value: 47.9 +/- 3.5 %). As to conditions: 2.5 h. The format is cell-based.

The target of data set [5] is ATP-dependent translocase ABCB1 (Homo sapiens, UniProt P08183, G1114A). Description: Negative allosteric modulator activity at human P-gp G1114A mutant expressed in HEK293FT cells assessed as increase in intracellular doxorubicin accumulation using doxorubicin as substrate at 1 uM incubated for 150 mins by microplate reader assay (reference value: 98.8 +/- 1.4 %). The class given is cell-based. As to conditions: 2.5 h.

Data set [6] deals with ATP-dependent translocase ABCB1 (Homo sapiens, UniProt P08183, I1115A). The data set can be described thus: Negative allosteric modulator activity at human P-gp I1115A mutant expressed in HEK293FT cells assessed as increase in intracellular doxorubicin accumulation using doxorubicin as substrate at 1 uM incubated for 150 mins by microplate reader assay (reference value: 91.6 +/- 4.4 %). The settings on record: 2.5 h. The class given is cell-based.

Data set [7] has as its target ATP-dependent translocase ABCB1 (Homo sapiens, UniProt P08183, T1226A). Description: Negative allosteric modulator activity at human P-gp T1226A mutant expressed in HEK293FT cells assessed as increase in intracellular doxorubicin accumulation using doxorubicin as substrate at 1 uM incubated for 150 mins by microplate reader assay (reference value: 89 +/- 4 %). The format is cell-based. The settings on record: 2.5 h.

Data set [8] has as its target T1, ATP-dependent translocase ABCB1. The data set can be described thus: Negative allosteric modulator activity at human P-gp C1227A mutant expressed in HEK293FT cells assessed as increase in intracellular doxorubicin accumulation using doxorubicin as substrate at 1 uM incubated for 150 mins by microplate reader assay (reference value: 33.3 +/- 1.3 %). The class given is cell-based. The settings on record: 2.5 h.

In data set [9] the target is ATP-dependent translocase ABCB1 (Homo sapiens, UniProt P08183, Q1193K). The data set can be described thus: Negative allosteric modulator activity at human P-gp Q1193K mutant expressed in HEK293FT cells assessed as increase in intracellular doxorubicin accumulation using doxorubicin as substrate at 1 uM incubated for 150 mins by microplate reader assay (reference value: 69.1 +/- 1 %). The class given is cell-based. The settings on record: 2.5 h.

The target of data set [10] is T2, ATP-dependent translocase ABCB1. Description: Negative allosteric modulator activity at human P-gp Q1193C mutant expressed in HEK293FT cells assessed as increase in intracellular doxorubicin accumulation using doxorubicin as substrate at 1 uM incubated for 150 mins by microplate reader assay (reference value: 63 +/- 2.5 %). The format is cell-based. The settings on record: 2.5 h.

Data set [11] has as its target ATP-dependent translocase ABCB1 (Homo sapiens, UniProt P08183, Q1193T). Description: Negative allosteric modulator activity at human P-gp Q1193T mutant expressed in HEK293FT cells assessed as increase in intracellular doxorubicin accumulation using doxorubicin as substrate at 1 uM incubated for 150 mins by microplate reader assay (reference value: 65.5 +/- 0.9 %). As to conditions: 2.5 h. The class given is cell-based.

In data set [12] the target is ATP-dependent translocase ABCB1 (Homo sapiens, UniProt P08183, G1114I). The data set can be described thus: Negative allosteric modulator activity at human P-gp G1114I mutant expressed in HEK293FT cells assessed as increase in intracellular doxorubicin accumulation using doxorubicin as substrate at 1 uM incubated for 150 mins by microplate reader assay (reference value: 94.7 +/- 2.7 %). The class given is cell-based. As to conditions: 2.5 h.

The target in data set [13] is ATP-dependent translocase ABCB1 (Homo sapiens, UniProt P08183, G1114L). Description: Negative allosteric modulator activity at human P-gp G1114L mutant expressed in HEK293FT cells assessed as increase in intracellular doxorubicin accumulation using doxorubicin as substrate at 1 uM incubated for 150 mins by microplate reader assay (reference value: 97.9 +/- 4.2 %). The class given is cell-based. As to conditions: 2.5 h.
Chain of ATP-dependent translocase ABCB1 (Homo sapiens, UniProt P08183, G1114L) (P08183 whole entry G1114L): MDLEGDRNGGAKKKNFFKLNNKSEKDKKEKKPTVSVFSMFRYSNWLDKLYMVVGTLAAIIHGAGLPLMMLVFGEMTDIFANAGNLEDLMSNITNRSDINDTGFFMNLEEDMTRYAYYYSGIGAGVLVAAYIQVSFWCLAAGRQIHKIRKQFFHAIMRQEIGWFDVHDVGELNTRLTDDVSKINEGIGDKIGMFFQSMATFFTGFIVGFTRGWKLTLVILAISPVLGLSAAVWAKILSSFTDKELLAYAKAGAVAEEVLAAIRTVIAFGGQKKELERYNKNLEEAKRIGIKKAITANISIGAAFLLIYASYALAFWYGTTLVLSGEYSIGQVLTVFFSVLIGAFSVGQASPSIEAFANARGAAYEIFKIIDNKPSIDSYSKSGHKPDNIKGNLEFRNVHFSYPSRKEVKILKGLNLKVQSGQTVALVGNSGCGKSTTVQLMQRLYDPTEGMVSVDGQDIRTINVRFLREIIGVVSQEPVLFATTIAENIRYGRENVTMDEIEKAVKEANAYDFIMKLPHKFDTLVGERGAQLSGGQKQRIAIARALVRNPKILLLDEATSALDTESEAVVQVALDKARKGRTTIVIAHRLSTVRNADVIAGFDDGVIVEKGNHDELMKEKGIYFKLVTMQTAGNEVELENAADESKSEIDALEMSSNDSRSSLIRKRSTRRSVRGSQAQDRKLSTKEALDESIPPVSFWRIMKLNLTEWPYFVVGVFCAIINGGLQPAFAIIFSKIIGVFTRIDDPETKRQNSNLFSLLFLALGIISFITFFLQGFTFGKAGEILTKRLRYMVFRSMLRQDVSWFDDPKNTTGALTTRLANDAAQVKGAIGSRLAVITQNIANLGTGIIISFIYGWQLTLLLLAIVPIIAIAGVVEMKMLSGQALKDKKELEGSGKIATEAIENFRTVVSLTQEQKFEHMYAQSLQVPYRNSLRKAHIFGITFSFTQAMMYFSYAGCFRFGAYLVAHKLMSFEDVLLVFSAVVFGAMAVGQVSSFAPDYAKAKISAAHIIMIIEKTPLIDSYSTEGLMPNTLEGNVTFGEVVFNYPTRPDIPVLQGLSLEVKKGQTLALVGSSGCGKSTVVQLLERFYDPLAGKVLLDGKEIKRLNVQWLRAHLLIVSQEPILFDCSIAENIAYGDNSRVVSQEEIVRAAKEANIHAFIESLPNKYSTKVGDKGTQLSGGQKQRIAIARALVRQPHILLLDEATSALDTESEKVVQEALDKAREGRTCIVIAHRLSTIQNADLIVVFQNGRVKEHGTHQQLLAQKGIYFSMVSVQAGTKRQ

Data set [14] has as its target ATP-dependent translocase ABCB1 (Homo sapiens, UniProt P08183, I1115E). Description: Negative allosteric modulator activity at human P-gp I1115E mutant expressed in HEK293FT cells assessed as increase in intracellular doxorubicin accumulation using doxorubicin as substrate at 1 uM incubated for 150 mins by microplate reader assay (reference value: 94.7 +/- 5.1 %). The format is cell-based. As to conditions: 2.5 h.

The target in data set [15] is ATP-dependent translocase ABCB1 (Homo sapiens, UniProt P08183, I1115M). The data set can be described thus: Negative allosteric modulator activity at human P-gp I1115M mutant expressed in HEK293FT cells assessed as increase in intracellular doxorubicin accumulation using doxorubicin as substrate at 1 uM incubated for 150 mins by microplate reader assay (reference value: 97 +/- 3.1 %). The class given is cell-based. The settings on record: 2.5 h.

Data set [16] concerns the target T1, ATP-dependent translocase ABCB1. Description: Negative allosteric modulator activity at human P-gp C1227A mutant expressed in HEK293FT cells assessed as fold change in intracellular doxorubicin accumulation using doxorubicin as substrate at 1 uM incubated for 150 mins by microplate reader assay relative to DMSO. The format is cell-based. The settings on record: 2.5 h.

The target in data set [17] is ATP-dependent translocase ABCB1 (Homo sapiens, UniProt P08183, Q1193E). Description: Negative allosteric modulator activity at human P-gp Q1193E mutant expressed in HEK293FT cells assessed as fold change in intracellular doxorubicin accumulation using doxorubicin as substrate at 1 uM incubated for 150 mins by microplate reader assay relative to DMSO. The format is cell-based. As to conditions: 2.5 h.

The target in data set [18] is ATP-dependent translocase ABCB1 (Homo sapiens, UniProt P08183, T1226F). Description: Negative allosteric modulator activity at human P-gp T1226F mutant expressed in HEK293FT cells assessed as fold change in intracellular doxorubicin accumulation using doxorubicin as substrate at 1 uM incubated for 150 mins by microplate reader assay relative to DMSO. As to conditions: 2.5 h. The class given is cell-based.

Data set [19] deals with ATP-dependent translocase ABCB1 (Homo sapiens, UniProt P08183, Q1193F). The data set can be described thus: Activation of P-gp ATPase activity in human P-gp Q1193F mutant expressed in HEK293FT cell microsomes assessed as fold change of ATPase activity at 20 uM incubated for 1 hr in presence of ATP by Glo-luminescence based microplate reader assay relative to DMSO. Also noted: species or system Microsome.

For data set [20], the target named is T2, ATP-dependent translocase ABCB1. The data set can be described thus: Activation of P-gp ATPase activity in human P-gp Q1193C mutant expressed in HEK293FT cell microsomes assessed as fold change of ATPase activity at 20 uM incubated for 1 hr in presence of ATP by Glo-luminescence based microplate reader assay relative to DMSO. Also noted: species or system Microsome.

Chain of ATP-dependent translocase ABCB1 (Homo sapiens, UniProt P08183, T1226A) (P08183 whole entry T1226A): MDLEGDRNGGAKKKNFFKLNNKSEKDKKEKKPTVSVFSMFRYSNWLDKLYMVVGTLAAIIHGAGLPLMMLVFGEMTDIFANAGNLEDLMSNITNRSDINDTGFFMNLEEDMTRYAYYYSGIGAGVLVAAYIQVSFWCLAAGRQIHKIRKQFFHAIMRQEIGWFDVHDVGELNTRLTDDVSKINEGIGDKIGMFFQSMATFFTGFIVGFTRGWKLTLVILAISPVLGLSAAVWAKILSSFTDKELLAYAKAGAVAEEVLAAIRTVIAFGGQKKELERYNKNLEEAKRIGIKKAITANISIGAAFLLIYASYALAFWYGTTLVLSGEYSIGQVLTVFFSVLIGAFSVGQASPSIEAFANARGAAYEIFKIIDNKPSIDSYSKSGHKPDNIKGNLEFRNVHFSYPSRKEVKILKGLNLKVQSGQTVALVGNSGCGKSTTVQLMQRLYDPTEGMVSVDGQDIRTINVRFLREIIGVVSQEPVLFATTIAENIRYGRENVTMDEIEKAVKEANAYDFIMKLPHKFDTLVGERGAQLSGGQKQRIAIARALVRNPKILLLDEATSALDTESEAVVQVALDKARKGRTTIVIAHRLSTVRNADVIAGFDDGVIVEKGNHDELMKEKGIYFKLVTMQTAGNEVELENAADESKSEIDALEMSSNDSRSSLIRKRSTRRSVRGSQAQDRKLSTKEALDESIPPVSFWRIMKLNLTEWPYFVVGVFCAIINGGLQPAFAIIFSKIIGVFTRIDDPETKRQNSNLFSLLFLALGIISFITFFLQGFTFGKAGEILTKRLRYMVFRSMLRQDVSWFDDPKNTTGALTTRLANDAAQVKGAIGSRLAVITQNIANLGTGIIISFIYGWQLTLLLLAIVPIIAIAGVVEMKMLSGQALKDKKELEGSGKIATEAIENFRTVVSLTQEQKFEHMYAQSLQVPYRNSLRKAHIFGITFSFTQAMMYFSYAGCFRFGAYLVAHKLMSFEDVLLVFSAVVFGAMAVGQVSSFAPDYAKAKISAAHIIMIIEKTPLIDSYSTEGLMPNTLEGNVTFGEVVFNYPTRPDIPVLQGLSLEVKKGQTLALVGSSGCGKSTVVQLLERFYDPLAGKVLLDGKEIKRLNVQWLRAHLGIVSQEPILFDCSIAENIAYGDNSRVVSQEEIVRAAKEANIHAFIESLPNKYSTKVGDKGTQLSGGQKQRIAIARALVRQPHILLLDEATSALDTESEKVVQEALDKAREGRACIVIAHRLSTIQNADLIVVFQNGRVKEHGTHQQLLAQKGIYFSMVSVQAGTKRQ

Turning to `O=c1cc(-c2ccc(OCCOCCNCc3ccccc3)cc2)oc2ccccc12`, the “fold change (FC)” value in data set [1] stood at 67.7; in data set [2], 12.4; in data set [3], 56.8; in [16], 1.3; in data set [17], 1.1; in data set [18] it was 1.5. Further, the “fold change (FC)” value in data set [19] worked out at 1.1; in [20], 1.3. The Activity in data set [4] was 90.1%; in data set [5], 93.5%; in data set [6], 89.7%; in [7], 85.8%; in data set [8] it was 43.8%; in data set [9], 87.8%. The Activity in data set [10] is 81.4%; in [11], 85.4%; in data set [12], 98.9%; in [13], 95%; in data set [14], 97.8%; in [15] it was 93.3%.
